Data published in PMC10531095, “Photonics of Some Monomethine Cyanine Dyes in Solutions and in Complexes with Biomolecules” (International Journal of Molecular Sciences, 2023).

Tests used:
Format in all cases: binding, chick
ssDNA = assay: Spectral fluorescent titration of the dyes with ssDNA in PBS; settings: for φfl^b, fluorescence quantum yield of the dye in the presence of biopolymer: cssDNA~5 × 10^−5 mol L^−1; for LOD: detection of ssDNA; for LOQ: quantification of ssDNA; for K1Sc, complexation constant (Scatchard) / nHill, Hill coefficient / KeffHill, effective complexation constant (Hill) / KeffBH, effective complexation constant (Benesi–Hildebrand) / αb, proportion of bound dye / K2Sc, complexation constant (Scatchard) / Fmax/F0, fluorescence growth at 100% binding / nSc, stoichiometric coefficient (Scatchard): ssDNA; for KeffHill, effective complexation constant (Hill) / KeffBH, effective complexation constant (Benesi–Hildebrand): PBS buffer; for KeffBH, effective complexation constant (Benesi–Hildebrand): fluorescent titration; for αb, proportion of bound dye: cbiomol = 5 × 10^−5 mol L^−1; for K2Sc, complexation constant (Scatchard): constant and nSc both varied; for Fmax/F0, fluorescence growth at 100% binding: from the Benesi–Hildebrand dependence; for nSc, stoichiometric coefficient (Scatchard): per one base; for decrease of the observed extinction coefficients: cssDNA~8 × 10^−5 mol L^−1
Excerpt: (§1) Complexation of MCD 1–4 with DNA (double-stranded and single-stranded) and with human serum albumin (HSA) was studied by spectral fluorescent methods in a wide range of biopolymer concentrations (cdsDNA = 0–1.5 × 10^−4 mol L^−1; cssDNA = 0–1.4 × 10^−4 mol L^−1; cHSA = 0–1.4 × 10^−4 mol L^−1 in PBS buffer). The absorption, fluorescence, and fluorescence excitation spectra of MCD 1 and 3 in the presence of dsDNA are shown in Figure 3 and Figure 4, respectively.
(§2) The complication of chemical equilibrium, and the variety of interactions between MCD and biopolymer (dye aggregation/deaggregation, the possibility of forming complexes of several types with DNA/HSA) makes it problematic to determine the exact values of the complexation constants of the dyes with DNA. The values of the effective equilibrium constants of the complexation reaction of MCD with biopolymers (Keff, L mol^−1, see Table 7) were estimated from spectral fluorescent data. In this case, we had to assume a simple equilibrium MCD (monomer, free) ⇄ MCD (monomer, bound). For these purposes, we used the Benesi–Hildebrand [59], Hill, and Scatchard formalisms (See Supplementary Materials, Equations (S9)–(S13)). For dsDNA, fitting according to the modified Scatchard equation was carried out assuming one dye molecule per one DNA turn (K1Sc at nSc = const = 10 b.p.), as well as varying both the constant (K2Sc) and the stoichiometric coefficient (nSc). In the case of ssDNA, nSc is given per one base; for HSA, nSc = 1.
(§3) Single-stranded form of DNA (single-stranded DNA; ssDNA) was obtained according to the method described in [74]. The concentrations of DNA and the dyes were controlled spectrophotometrically. Molar extinction coefficient of dsDNA (ε, L⋅mol^−1⋅cm^−1) was taken to be 13,200 L mol^−1 cm^−1 (per base pair); for ssDNA, ε = 9045 L mol^−1 cm^−1 (per one base) was used. For MCD 1 and 2 in an aqueous buffer solution, we used extinction coefficients ε = 40,000 and 68,000 L mol^−1 cm^−1, respectively, which were taken from. For MCD 3 and 4, the molar extinction coefficients in ethanol solution were 69,200 and 49,000 L mol^−1 cm^−1 (taken from). […] Spectral fluorescent characteristics of MCD in complexes with biomacromolecules were studied by titration of dye solutions (see Supplementary Materials). The thermal dissociation (“melting”) of dsDNA in the presence of MCD was studied spectrophotometrically (λabs = 260 nm), the sample was heated (t° = 30–95 °C) using Peltier cells, and the temperature was controlled using a thermocouple. Melting points tm, corresponding to 50% hyperchromia of DNA samples were obtained.
(§4) Absorption spectra were recorded on an SF-2000 spectrophotometer (Experimental-Construction Company “Spectrum”, St. Petersburg, Russia); fluorescence and fluorescence excitation spectra were recorded on a Fluorat-02-Panorama spectrofluorimeter (Group of Companies “Lumex”, St. Petersburg, Russia). The fluorescence and fluorescence excitation spectra were corrected for the spectral characteristics of the instrument (excitation channel signal) and sample transmission. Changes in the intrinsic fluorescence of HSA upon binding of MCD (in the presence of the dyes) were recorded in the synchronous fluorescence scanning (SFS) mode. In SFS mode, when registering spectra, a fixed difference Δλ= λfl − λex is maintained for the channels of excitation and registration. Synchronous scanning spectra were obtained at Δλ = 15 nm (fluorescence of tyrosine residues in the HSA molecule) and Δλ = 60 nm (fluorescence of tryptophan). The spectra were measured in 1 cm quartz semi-micro cells (Bio-Rad, Hercules, CA, USA).
(§5) The equilibrium constants of MCD complexation with biomolecules (Ka, L mol^−1) were obtained from fluorescence spectra using the Benesi–Hildebrand [59], Hill, and Scatchard equations [61] (see Supplementary Materials, Equations (S9)–(S13)). […]

dsDNA [1] = assay: Spectral fluorescent titration of the dyes with dsDNA in PBS; settings: for Ifl/Ifl0, relative increase in the fluorescence intensity: cdsDNA = 1 × 10^−4 mol L^−1; for φfl^b, fluorescence quantum yield of the dye in the presence of biopolymer: cdsDNA~5 × 10^−5 mol L^−1; for KeffHill, effective complexation constant (Hill) / KeffBH, effective complexation constant (Benesi–Hildebrand): PBS buffer; for KeffBH, effective complexation constant (Benesi–Hildebrand): fluorescent titration; for αb, proportion of bound dye: cbiomol = 5 × 10^−5 mol L^−1; for K2Sc, complexation constant (Scatchard): constant and nSc both varied; for Fmax/F0, fluorescence growth at 100% binding: from the Benesi–Hildebrand dependence; for K1Sc, complexation constant (Scatchard): nSc = const = 10 b.p.
Excerpt: as §1, §2, §3, §4, §5

dsDNA [2] = assay: Thermal dissociation (melting) of dsDNA in the presence of MCD; settings: cdsDNA~6 × 10^−5 mol L^−1, cMCD~6 × 10^−6 mol L^−1; for Tm(dsDNA), melting point of dsDNA in the presence of MCD: without cyanines 80 °C
Excerpt: It is known that noncovalent ligand–dsDNA interactions upon the intercalative type of binding lead to additional stabilization of the biopolymer, which is reflected in an increase in the temperature range of thermal dissociation of the DNA double helix. From the data on the thermal dissociation of dsDNA, it is easy to obtain the melting point Tm(dsDNA) (at which 50% dsDNA is denatured). Note that Tm(dsDNA) depends on its GC composition, molecular length, and degree of strand complementarity; long duplexes with fewer base mismatches will have higher Tm(dsDNA) than short duplexes with more mismatches.
Melting of the DNA double helix was measured spectrophotometrically at t = […], the normalized temperature dependences of the absorbances of the samples at λabs = 260 nm are shown in Figure 8.
as §3

[3] = cdsDNA = 1 × 10^−4 mol L^−1, compared to the initial spectra in PBS

Row | Structure (SMILES) | φfl^b, fluorescence quantum yield of the dye in the presence of biopolymer (ssDNA) | LOD (ssDNA) | LOQ (ssDNA) | K1Sc, complexation constant (Scatchard) (ssDNA) | nHill, Hill coefficient (ssDNA) | KeffHill, effective complexation constant (Hill) (ssDNA) | KeffBH, effective complexation constant (Benesi–Hildebrand) (ssDNA) | αb, proportion of bound dye (ssDNA) | K2Sc, complexation constant (Scatchard) (ssDNA) | Fmax/F0, fluorescence growth at 100% binding (ssDNA) | nSc, stoichiometric coefficient (Scatchard) (ssDNA) | Ifl/Ifl0, relative increase in the fluorescence intensity (dsDNA [1]) | φfl^b, fluorescence quantum yield of the dye in the presence of biopolymer (dsDNA [1]) | LOD (dsDNA [1]; detection of dsDNA) | nHill, Hill coefficient (dsDNA [1]; dsDNA) | nSc, stoichiometric coefficient (Scatchard) (dsDNA [1]; dsDNA) | KeffHill, effective complexation constant (Hill) (dsDNA [1]; dsDNA) | KeffBH, effective complexation constant (Benesi–Hildebrand) (dsDNA [1]; dsDNA) | αb, proportion of bound dye (dsDNA [1]; dsDNA) | K2Sc, complexation constant (Scatchard) (dsDNA [1]; dsDNA) | other results
1 | CCN1/C(=C/c2sc3ccccc3[n+]2CC)Sc2ccccc21 [MCD 3] | 4.7 ± 0.5% | 87 nM | 260 nM | 112000 L/mol | 0.76 | 2940 L/mol | 11600 L/mol | 37% | 430000 L/mol | 71 | 37 | 79 times | 4.8 ± 0.5% | 41 nM | 0.88 | 35 | 6900 L/mol | 13500 L/mol | 40% | 480000 L/mol | hypochromia of the absorption band (dsDNA [1]; [3]): 44%; Fmax/F0, fluorescence growth at 100% binding (dsDNA [1]; dsDNA): 136; K1Sc, complexation constant (Scatchard) (dsDNA [1]; dsDNA): 135000 L/mol; LOQ (dsDNA [1]; quantification of dsDNA): 126 nM; growth of Tm(dsDNA) (dsDNA [2]): 2–3 °C; Tm(dsDNA), melting point of dsDNA in the presence of MCD (dsDNA [2]): 82 °C
2 | CCN1/C(=C/c2ccc3ccccc3[n+]2CC)C=Cc2ccccc21 [MCD 4] | ~1.4 ± 0.2% | 760 nM | 2300 nM | 65000 L/mol | 0.57 | 350 L/mol | 6800 L/mol | 25% | 19500 L/mol | 61 | 3 | 115 times | ~1.5 ± 0.2% | 94 nM | 0.62 | 2 | 1850 L/mol | 19500 L/mol | 46% | 37000 L/mol | decrease of the observed extinction coefficients (ssDNA): 54%; hypochromia of the absorption band (dsDNA [1]; [3]): 36%; Fmax/F0, fluorescence growth at 100% binding (dsDNA [1]; dsDNA): 169; K1Sc, complexation constant (Scatchard) (dsDNA [1]; dsDNA): 186000 L/mol; LOQ (dsDNA [1]; quantification of dsDNA): 210 nM; growth of Tm(dsDNA) (dsDNA [2]): 2–3 °C; Tm(dsDNA), melting point of dsDNA in the presence of MCD (dsDNA [2]): 83 °C
3 | CC[N+](CC)(CC)CCC[n+]1ccc(/C=C2\Sc3ccccc3N2C)c2ccc(O)cc21 [MCD 1] | 12 ± 1.5% | 40 nM | 120 nM | 228000 L/mol | 0.7 | 2830 L/mol | 24200 L/mol | 60% | 159000 L/mol | 60.9 | 2 | about 425 times | 13 ± 1.5% | 7.2 nM | 1.04 | 2 | 53400 L/mol | 54000 L/mol | ~80% | 169000 L/mol | Ifl/Ifl0, relative increase in the fluorescence intensity (ssDNA; cssDNA = 5 × 10^−5 mol L^−1): ~ 40; decrease of the observed extinction coefficients (ssDNA): 40%; LOD (dsDNA [1]; dsDNA): about 10^−8 mol L^−1; LOQ (dsDNA [1]; dsDNA): about 10^−8 mol L^−1; αb, proportion of bound dye (dsDNA [1]; dsDNA, listed as 1): 80%; Fmax/F0, fluorescence growth at 100% binding (dsDNA [1]; dsDNA): 460; K1Sc, complexation constant (Scatchard) (dsDNA [1]; dsDNA): 793000 L/mol; hypochromia of the absorption band (dsDNA [1]; high concentrations of dsDNA): 8%; LOQ (dsDNA [1]; quantification of dsDNA): 21 nM; Tm(dsDNA), melting point of dsDNA in the presence of MCD (dsDNA [2]): 85–86 °C
